Data published in PMC8232621, “Antimicrobial Activity of a Library of Thioxanthones and Their Potential as Efflux Pump Inhibitors” (Pharmaceuticals, 2021).
Like-named read-outs stand apart in the source and are kept apart here.

How the values were obtained:
E. coli ATCC 25922 = experiment: Antibacterial activity, broth microdilution MIC; assay type: cell-based; conditions: Escherichia coli, ATCC25922, read-out: Minimum Inhibitory Concentration (MIC)
Excerpt: (§1) The referred library of thioxanthones was initially tested for their antimicrobial activity against six bacterial strains: the Gram-negative Escherichia coli ATCC 25922, Pseudomonas aeruginosa ATCC 27853 and Salmonella enterica serovar Typhimurium SL1344 (SE03), with the acrA gene deleted, and the Gram-positive Staphylococcus aureus ATCC 29213, Enterococcus faecalis ATCC 29212 and the methicillin and ofloxacin-resistant clinical isolate S. aureus 272123. For the synergy assay, two clinically relevant isolates were used: the extended-spectrum β-lactamase (ESBL)-producing E. coli SA/2 [23] and the vancomycin-resistant E. faecalis (VRE) B3/101 [23]. The antibiotics used were cefotaxime (CTX) and vancomycin (VAN), respectively.
(§2) The minimum inhibitory concentration (MIC) for each compound was determined by broth microdilution method in a 96-well plate according to the Clinical and Laboratory Standard Institute (CLSI) guidelines. The medium used was MHB II. The concentrations tested ranged from 100 µM to 0.195 µM and were prepared from a stock solution of 10 mM in DMSO, for S. aureus 272123 and SE03; for the other strains, the concentrations tested ranged from 64 µg/mL to 4 µg/mL and were prepared from a stock solution of 10 mg/mL in DMSO. DMSO was used in subinhibitory concentrations (1% v/v). The MIC was determined by visual inspection.

P. aeruginosa ATCC 27853 = experiment: Antibacterial activity, broth microdilution MIC; assay type: cell-based; conditions: Pseudomonas aeruginosa, ATCC27853, read-out: Minimum Inhibitory Concentration (MIC)
Excerpt: as §1, §2

S. aureus 272123 = experiment: Real-time ethidium bromide accumulation assay (efflux pump inhibition); assay type: cell-based, Staphylococcus aureus; design: key: RFI = (RFtreated − RFuntreated)/RFuntreated at minute 60; conditions: compounds 50 µM, reserpine 25 µM, minute 60, EB 1 µg/mL
Protocol: (§3) The relative fluorescence index (RFI) was calculated based on the means of relative fluorescence units, and theses RFIs are depicted in Table 4.
(§4) The compounds were evaluated for their ability to inhibit the efflux of EB, an efflux pump substrate, in Salmonella enterica serovar Typhimurium SE03 and S. aureus 272123 strains, through real-time fluorimetry, monitoring the intracellular accumulation of EB, an efflux pump substrate. This was determined by the automated method using a CLARIOstar Plus plate reader (BMG Labtech, Ortenberg, Germany). Reserpine and CCCP were applied at 25 µM as positive controls, and the solvent DMSO was applied at 1% v/v. The bacterial strains were incubated in an appropriate culture media (TSB–S. aureus 272123; LB-B–SE03) at 37 °C until they reached an optical density (OD) of 0.6 at 600 nm. The culture was centrifuged at 13,000× g for 3 min, and the pellet was washed and resuspended with phosphate buffered saline (PBS, pH 7.4). The suspension was centrifuged again in the same conditions and resuspended in PBS.
(§5) Then, 50 µL of this solution were transferred into a 96-well black microtiter plate (Greiner Bio-One Hungary Kft, Mosonmagyaróvár, Fertősor, Hungary), and 50 µL of bacterial suspension (OD600 = 0.6) were added to each well. The plates were placed into the CLARIOstar plate reader, and the fluorescence was monitored at excitation and emission wavelengths of 530 nm and 600 nm, respectively, every minute for one hour on a real-time basis. From the real-time data, the activity of the compounds, namely the relative fluorescence index (RFI) of the last time point (minute 60) of the EB accumulation assay, was calculated according to the following equation:(1) RFI=RFtreated−RFuntreated/RFuntreated where RFtreated is the relative fluorescence (RF) at the last time point of EB accumulation curve in the presence of the compound, and RFuntreated is the RF at the last time point of the EB accumulation curve of the untreated control, having only the solvent (DMSO) control. The accumulation curves were designed using Microsoft Excel®. The samples were tested in triplicate, and the RFI presented comes from the average of these three values. The accumulation graphs present the mean of the RF at the last time point. The standard deviation (SD) was calculated automatically and included in the RF graphs.

SE03 = experiment: as above; assay type: cell-based, Salmonella enterica serovar Typhimurium SL1344; conditions: compounds 50 µM (compound 12 at 17 µM), CCCP 25 µM, minute 60, EB 1 µg/mL
Protocol: as §3, §4, §5

S. aureus ATCC 29213 = experiment: Inhibition of biofilm formation (crystal violet); assay type: cell-based; conditions: Staphylococcus aureus, ATCC29213, 48 h
EZF + CV026 = experiment: Quorum sensing inhibition assay (pigment production), parallel inoculation; assay type: cell-based; conditions: disk with 8 µL of 10 mM solution, read-out: Quorum Sensing Inhibition (mm) ± SD
Protocol: Concerning the QS inhibition assay, the sensor strain Chromobacterium violaceum CV026 and the AHL producer strain Sphingomonas paucimobilis Ezf 10-17 (EZF) were inoculated as parallel lines, and the AHL producers Chromobacterium violaceum wild-type 85 (wt85) and Serratia marcescens AS-1 were inoculated as a single line. The interaction between the strains and compounds 2–18 was evaluated as the reduction of pigment production, in millimeters (mm) (Table 5) with promethazine (PMZ) as a positive control.
The QS inhibitory effect of the compounds was examined on the EZF and the sensor CV026 strains, on the wt85 strain, and on S. marcescens. The method used was the parallel inoculation method, where pair combinations of the used sensor strain CV026 and the N-acyl-homoserine lactone (AHL) producing strain EZF were inoculated directly onto the LB*-A agar surface in parallel, at an approximate distance of 5 mm from each other. S. marcescens AS-1 and wt85 were inoculated as a single line. Filter paper disks (7 mm in diameter) were placed on the center of the inoculated line(s) and impregnated with 8 µL of a solution of 10 mM of the compounds. […] The agar plates were incubated at room temperature (20 °C) for 24−48 h. The QS inhibition was accessed visually, through the inhibition of pigment production. The discolored, but intact, bacterial colonies were measured with a ruler.

[1] = S. aureus ATCC 29213, compounds 100 µM (compound 12 at 50 µM), read-out: Biofilm Inhibition (%) ± SD

SMILES | MIC (E. coli ATCC 25922) | MIC (P. aeruginosa ATCC 27853) | RFI ± SD (S. aureus 272123) | RFI ± SD (SE03) | inhibition at 100 µM (S. aureus ATCC 29213; [1]) | zone of inhibition at 10000 µM (EZF + CV026) | inhibition at 100 µM (S. aureus ATCC 29213; read-out: Biofilm Inhibition (%) ± SD, S. aureus ATCC 29213, compounds 100 µM (compound 12 at 50 µM))
CCCOc1ccc(Br)c2c(=O)c3ccccc3sc12 [Compound 14, 1-Bromo-4-propoxy-9H-thioxanthen-9-one] | > 100 µM | > 100 µM | 1.13 ± 0.13 | 0.87 ± 0.11 | 0% | 0 mm | –
CCCOc1ccc2c3c(n/c(=N\c4ccccc4C)n2-c2ccccc2C)-c2ccccc2Sc13 [Compound 18] | > 100 µM | > 100 µM | 0.20 ± 0.03 | 0.20 ± 0.02 | 19.7 ± 7.46% | 0 mm | –
CCCOc1ccc(NS(=O)(=O)c2ccc(C(=O)O)cc2)c2c(=O)c3ccccc3sc12 [Compound 12, 4-[N-(9-Oxo-4-propoxy-9H-thioxanthen-1-yl)sulfamoyl]benzoic acid] | > 100 µM | > 100 µM | 0.29 ± 0.19 | −0.21 ± 0.07 | ~53% | 0 mm | –
CCCOc1ccc2nc(NCc3ccccc3Cl)nc3c2c1Sc1ccccc1-3 [Compound 17] | > 100 µM | > 100 µM | 9.69 ± 0.95 | 25.51 ± 2.93 | 0% | 49 ± 0.5 mm | –
CCCOc1ccc(NCCO)c2c(=O)c3ccccc3sc12 [Compound 10, 1-[(2-Hydroxyethyl)amino]-4-propoxy-9H-thioxanthen-9-one] | > 100 µM | > 100 µM | 4.71 ± 0.78 | 6.00 ± 0.80 | 0% | 0 mm | –
CCCOc1ccc(N2CCCCC2)c2c(=O)c3ccccc3sc12 [Compound 3] | – | – | 1.50 ± 0.04 | 0.67 ± 0.01 | – | 31 ± 0.8 mm | > 90%
CCCOc1ccc(NS(=O)(=O)c2ccc(N)cc2)c2c(=O)c3ccccc3sc12 [Compound 13, 4-Amino-N-(9-oxo-4-propoxy-9H-thioxanthen-1-yl)benzenesulfonamide] | > 100 µM | > 100 µM | −0.18 ± 0.05 | 1.23 ± 0.18 | 0.42 ± 1.36% | 51 ± 0.1 mm | –
CCCOc1ccc(N2CCNC(=O)C2)c2c(=O)c3ccccc3sc12 [Compound 9, 4-(9-Oxo-4-propoxy-9H-thioxanthen-1-yl)piperazin-2-one] | > 100 µM | > 100 µM | 0.14 ± 0.02 | 1.54 ± 0.09 | 5.18 ± 1.02% | 0 mm | –
CCCOc1ccc(Nc2nc(C)cc(C)n2)c2c(=O)c3ccccc3sc12 [Compound 8, 1-[(4,6-Dimethylpyrimidin-2-yl)amino]-4-propoxy-9H-thioxanthen-9-one] | > 100 µM | > 100 µM | 0.24 ± 0.07 | 0.74 ± 0.08 | 0% | 32 ± 0.1 mm | –
CCCOc1ccc2ncnc3c2c1Sc1ccccc1-3 [Compound 15] | > 100 µM | > 100 µM | −0.07 ± 0.50 | 0.54 ± 0.11 | 0% | 50 ± 0.1 mm | –
CCCOc1ccc(NCCN2CCOCC2)c2c(=O)c3ccccc3sc12 [Compound 11, 1-[(2-Morpholinoethyl)amino]-4-propoxy-9H-thioxanthen-9-one] | > 100 µM | > 100 µM | 0.89 ± 0.06 | 1.37 ± 0.054 | 0% | 0 mm | –
CCCOc1ccc(NCCN(CC)CC)c2c(=O)c3ccccc3sc12 [Compound 2] | – | – | 0.75 ± 0.08 | −0.02 ± 0.04 | 0.53 ± 1.05% | 0 mm | –
CCCOc1ccc2nc(N)nc3c2c1Sc1ccccc1-3 [Compound 16] | > 100 µM | > 100 µM | 0.96 ± 0.27 | 7.52 ± 0.01 | 0% | 29 ± 0.8 mm | –
